Measured values from patent US8093394B2, “Derivatives of 5-thioxylopyranose and use of same for treatment” (Laboratoires Fournier S.A., priority 2006, dated 2012).

These molecules were tested on venous thrombosis (assay: venous thrombosis test in rats, activity via the oral route (venous stasis under hypercoagulation with factor Xa, Wessler technique)). Conditions: dose 6 mg/kg, thrombosis induced 2 h after administration, male Wistar rats.
Assay type: in vivo
Procedure: The antithrombotic activity of the compounds according to the invention was studied in vivo in rats by virtue of a test in which a venous thrombosis is reproduced. The venous thrombosis was induced according to the protocol described in Thromb. Haemost., 1992, 67(1), 176-179. The activity via the oral route was studied according to the procedure described below. The experiment is carried out on non-fasting male Wistar rats weighing from 250 to 280 g and divided into groups of 10 animals each. The test products are administered orally (intubation) in solution or in suspension in a 0.5% solution of methylcellulose in water. The concentrations of the compounds are calculated so as to bring about the absorption of an amount of solution of 10 ml/kg orally. A thrombosis is induced at a time T after the administration of the product and the thrombus formed is removed and weighed. In order to induce this thrombosis, a venous stasis is brought about under hypercoagulation, according to the technique described by Wessler (J. Applied Physiol., 1959, 943-946), using a solution of activated factor X (Xa), supplied by Biogenic (Montpellier) and comprising a dose of 7.5 nKat/kg, as hypercoagulant. The venous stasis is brought about 10 seconds exactly after the injection of the hypercoagulant. The activity of the test compounds is monitored at various doses, after they have been administered. The thrombosis is induced 2 hours after the administration of the compound. By way of example, the results of the above tests are given in the following table for a few compounds according to the invention (the activity is expressed by the percentage of inhibition of the formation of the thrombus, observed in the presence of the compound according to the invention, with respect to the weight of the thrombus formed in the absence of the compound).

Compound	Activity (percentage of inhibition of the formation of the thrombus, with respect to the weight of the thrombus formed in the absence of the compound) [%]
O[C@@H]1[C@@H](O)[C@H](Oc2ccc(-c3ccncc3)nc2F)SC[C@H]1O [Example 22, 2-Fluoro-6-(4-pyridinyl)-3-pyridinyl 5-thio-β-D-xylopyranoside]	100
O[C@@H]1[C@@H](O)[C@H](Oc2ccc(-c3ccncc3)nc2Cl)SC[C@H]1O [Example 24, 2-Chloro-6-(4-pyridinyl)-3-pyridinyl 5-thio-β-D-xylopyranoside]	96
O[C@@H]1[C@@H](O)[C@H](Oc2cncc(-c3ccc(Cl)nc3)c2)SC[C@H]1O [Example 30, 5-(6-Chloro-3-pyridinyl)-3-pyridinyl 5-thio-β-D-xylopyranoside]	97
O[C@@H]1[C@@H](O)[C@H](Oc2ccc(-c3cccnc3Cl)nc2)SC[C@H]1O [Example 40, 6-(2-Chloro-3-pyridinyl)-3-pyridinyl 5-thio-β-D-xylopyranoside]	96
O[C@@H]1[C@@H](O)[C@H](Oc2ccc(-c3cccs3)nc2)SC[C@H]1O [Example 108, 6-(2-Thienyl)-3-pyridinyl 5-thio-β-D-xylopyranoside]	95
O[C@@H]1[C@@H](O)[C@H](Oc2ccc(-c3ccncc3)nc2)SC[C@H]1O [Example 122, 6-(4-Pyridinyl)-3-pyridinyl 5-thio-β-D-xylopyranoside]	93
O[C@@H]1[C@@H](O)[C@H](Oc2ccnc(-c3ccncc3)c2)SC[C@H]1O [Example 130, 2-(4-Pyridinyl)-4-pyridinyl 5-thio-β-D-xylopyranoside]	91
Cc1oncc1-c1ccc(O[C@@H]2SC[C@@H](O)[C@H](O)[C@H]2O)cn1 [Example 140, 6-(5-Methyl-4-isoxazolyl)-3-pyridinyl 5-thio-β-D-xylopyranoside]	96
Cc1cncc(-c2ccc(O[C@@H]3SC[C@@H](O)[C@H](O)[C@H]3O)cn2)c1 [Example 142, 6-(5-Methyl-3-pyridinyl)-3-pyridinyl 5-thio-β-D-xylopyranoside]	97
Cn1cc(-c2ncc(O[C@@H]3SC[C@@H](O)[C@H](O)[C@H]3O)cc2F)cn1 [Example 224, 5-Fluoro-6-(1-methyl-1H-pyrazol-4-yl)-3-pyridinyl 5-thio-β-D-xylopyranoside]	99
Cc1noc(C)c1-c1ncc(O[C@@H]2SC[C@@H](O)[C@H](O)[C@H]2O)cc1F [Example 226, 6-(3,5-Dimethyl-4-isoxazolyl)-5-fluoro-3-pyridinyl 5-thio-β-D-xylopyranoside]	97
